Test results reported in patent US20260001871A1, “TRIAZOLE DERIVATIVES AS MODULATORS OF MAS-RELATED G-PROTEIN RECEPTOR D” (ESCIENT PHARMACEUTICALS, INC., priority 2022, published 2026).

Biological target: human MRGPRD (Homo sapiens, UniProt Q8TDS7)
Test: MRGPRD antagonist activity, IP-One HTRF assay in CHO cells stably expressing human MRGPRD (versus 100 μM β-Alanine agonist)
Assay type: cell-based
Procedure, shortened: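 CHO cells stably expressing human MRGPRD, plated overnight at 37 °C, were treated with antagonist plus agonist in Tris-HCl/NaCl/LiCl buffer pH 8, incubated 1 h at 37 °C then 1 h at room temperature. IP-1 accumulation read by HTRF; IC50 and percent antagonism of maximum efficacy averaged, SEM reported.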

human MRGPRD, sequence (Q8TDS7 whole entry): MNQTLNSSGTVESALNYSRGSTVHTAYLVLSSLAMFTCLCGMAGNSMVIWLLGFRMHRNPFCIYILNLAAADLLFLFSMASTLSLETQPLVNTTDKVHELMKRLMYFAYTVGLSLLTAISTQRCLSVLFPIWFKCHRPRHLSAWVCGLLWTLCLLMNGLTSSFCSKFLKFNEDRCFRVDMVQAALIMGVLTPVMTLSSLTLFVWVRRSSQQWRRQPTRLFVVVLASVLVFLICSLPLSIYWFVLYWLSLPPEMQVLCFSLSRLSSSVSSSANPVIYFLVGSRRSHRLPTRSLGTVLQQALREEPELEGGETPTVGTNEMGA

Row | SMILES | IC50 [µM]
1 | Cc1nn(C)c(C)c1-c1ccc(-n2nnc(C(=O)NCc3ccc(C(C)C)nc3)c2C2CC2)cc1 [Compound 9-9] | 0.1 to 0.5
2 | Cc1cc(NC(=O)c2nnn(C3CC=C(c4ccc(C#N)cc4)CC3)c2C2CC2)ccn1 (centres unmarked) [Compound 23-1, 1-(4′-cyano-2,3,4,5-tetrahydro-[1,1′-biphenyl]-4-yl)-5-cyclopropyl-N-(2-methylpyridin-4-yl)-1H-1,2,3-triazole-4-carboxamide] | 0.1 to 0.5
3 | CCCn1cc(-c2cccc(-n3nnc(C(=O)Nc4ccncc4)c3C3CC3)c2)cn1 [Compound 7-306] | 1 to 3
4 | O=C(NCCc1c[nH]cn1)c1nnn(-c2ccc(-c3ccccc3)cc2)c1C1CC1 [Compound 14-42] | 1 to 3
5 | O=C(Nc1ccncc1)c1nnn(-c2ccc(-c3cnn(C4CCCC4)c3)cc2)c1C1CC1 [Compound 7-63] | 0.1 to 0.5
6 | N#Cc1ccc(-c2cccc(-n3nnc(C(=O)NC4(c5cccnc5)CC4)c3C3CC3)c2)cc1 [Compound 7-9] | > 3
7 | CC(=O)c1ccc(-c2cccc(-n3nnc(C(=O)Nc4ccncc4)c3C3CC3)c2)c(F)c1 [Compound 7-229] | 0.1 to 0.5
8 | O=C(Nc1ccncc1)c1nnn(-c2cccc(-c3ccccc3Cl)c2)c1C1CC1 [Compound 7-302] | 1 to 3
9 | CC(C)c1c(C(=O)NC2(c3cccnc3)CC2)nnn1-c1ccc(-c2ccc(C#N)cc2)cc1 [Compound 17-32] | 1 to 3
10 | Cc1cccc(-n2nnc(C(=O)Nc3ccncc3)c2C2CC2)c1 [Compound 2-14] | > 3
11 | COCC1(NC(=O)c2nnn(-c3ccc(-c4ccccc4)cc3)c2C2CC2)CCCC1 [Compound 14-83] | > 3
12 | Cn1nc(-c2ccccc2)cc1-c1ccc(-n2nnc(C(=O)Nc3ccncc3)c2C2CC2)cc1 [Compound 7-68] | 0.1 to 0.5
13 | Cn1ccnc1-c1ccc(-n2nnc(C(=O)Nc3ccncc3)c2C2CC2)cc1 [Compound 7-163] | 1 to 3
14 | CCn1nc(C)c(-c2ccc(-n3nnc(C(=O)N4Cc5cnn(C)c5C4)c3C3CC3)cc2)c1C [Compound 9-32] | 1 to 3
15 | O=C(Nc1ccncc1)c1nnn(-c2cccc(-c3cnn(-c4ccccc4)c3)c2)c1C1CC1 [Compound 7-256] | 0.5 to 1
16 | Cc1ccc(CNC(=O)c2nnn(-c3ccc(-c4cnn5c4CCC5)cc3)c2C2CC2)cn1 [Compound 8-4] | 1 to 3
17 | CCn1nc(C)c(-c2ccc(-n3nnc(C(=O)NC4(c5cccnc5)CC4)c3C3CC3)cc2)c1C [Compound 19-2, 5-cyclopropyl-1-(4-(1-ethyl-3,5-dimethyl-1H-pyrazol-4-yl)phenyl)-N-(1-(pyridin-3-yl)cyclopropyl)-1H-1,2,3-triazole-4-carboxamide] | 0.1 to 0.5
18 | Cc1nn(C)c(C)c1-c1ccc(-n2nnc(C(=O)Nc3ccncc3)c2C2CC2)cc1C#N [Compound 7-250] | 0.5 to 1
19 | O=C(Nc1ccncc1)c1nnn(-c2ccc(-c3ccccc3-c3ccccc3)cc2)c1C1CC1 [Compound 7-327] | 1 to 3
20 | CC(NC(=O)c1nnn(-c2ccc(-c3ccccc3)cc2)c1C1CC1)c1cnn(C(C)(C)C)c1 (centres unmarked) [Compound 14-43] | 1 to 3
21 | Cc1ccc(-n2nnc(C(=O)Nc3ccncc3)c2C2CC2)c(C)c1 [Compound 2-8] | 1 to 3
22 | CC(=O)c1ccc(-c2cccc(-n3nnc(C(=O)Nc4ccncc4)c3C3CC3)c2)c(C)c1 [Compound 7-263] | 0.5 to 1
23 | Cc1cc(NC(=O)c2nnn(-c3ccc(-c4ccc(C#N)cc4)cc3F)c2C(C)C)ccn1 [Compound 17-14] | 0.1 to 0.5
24 | Cc1cc(NC(=O)c2nnn(-c3ccc(-c4c(C)nn(-c5ccccc5)c4C)cc3)c2C2CC2)ccn1 [Compound 10-1, 5-cyclopropyl-1-(4-(3,5-dimethyl-1-phenyl-1H-pyrazol-4-yl)phenyl)-N-(2-methylpyridin-4-yl)-1H-1,2,3-triazole-4-carboxamide] | < 0.1
25 | Cc1ccc(CNC(=O)c2nnn(-c3ccc(-c4c(C)nn(C)c4C)cc3F)c2C2CC2)cn1 [Compound 21-1, 5-cyclopropyl-1-(2-fluoro-4-(1,3,5-trimethyl-1H-pyrazol-4-yl)phenyl)-N-((6-methylpyridin-3-yl)methyl)-1H-1,2,3-triazole-4-carboxamide] | < 0.1

Row | SMILES | IC50 [µM]
26 | O=C(Nc1ccncc1)c1nnn(-c2ccc(-c3cccnc3)cc2)c1C1CC1 [Compound 7-179] | 1 to 3
27 | Cc1c(C(C)NC(=O)c2nnn(-c3ccc(-c4ccccc4)cc3)c2C2CC2)cnn1C (centres unmarked) [Compound 14-64] | 1 to 3
28 | O=C(Nc1ccncc1)c1nnn(-c2ccc(O)cc2)c1C1CC1 [Compound 4-5] | 1 to 3
29 | O=C(Nc1ccncc1)c1nnn(C2CCc3ccccc3C2)c1C1CC1 (centres unmarked) [Compound 4-9] | 1 to 3
30 | COc1ccc(C2(NC(=O)c3nnn(-c4ccc(-c5ccc(C(N)=O)cc5)cc4)c3C3CC3)CC2)cn1 [Compound 18-7] | 1 to 3
31 | COc1ccc(-c2ccc(-n3nnc(C(=O)Nc4ccnc(C)c4)c3C3CC3)cc2)cn1 [Compound 15-14] | 0.1 to 0.5
32 | O=C(Nc1ccncc1)c1nnn(-c2ccc3c(c2)CCC3)c1C1CC1 [Compound 5-1] | > 3
33 | Cc1nn(-c2ccccc2)c(C)c1-c1cccc(-n2nnc(C(=O)Nc3ccncc3)c2C2CC2)c1 [Compound 7-255] | 0.5 to 1
34 | O=C(Nc1ccncc1)c1nnn(-c2ccc(-c3cn[nH]c3)cc2)c1C1CC1 [Compound 7-173] | 1 to 3
35 | COCc1ccc(-c2ccc(-n3nnc(C(=O)Nc4ccnc(C)c4)c3C3CC3)cc2)cn1 [Compound 15-21] | 0.5 to 1
36 | O=C(Nc1ccncc1)c1nnn(-c2ccc(-c3cncs3)cc2)c1C1CC1 [Compound 7-187] | 1 to 3
37 | N#CCc1ccc(-c2ccc(-n3nnc(C(=O)Nc4ccncc4)c3C3CC3)cc2)cc1 [Compound 7-23] | 0.1 to 0.5
38 | Cc1nn(C)c(C)c1-c1ccc(-n2nnc(C(=O)NC3CC3)c2C(C)C)cc1 [Compound 17-34] | > 3
39 | Cc1ccc(CNC(=O)c2nnn(-c3cccc(-c4cnn(C5CC5)c4)c3)c2C2CC2)cn1 [Compound 7-333] | > 3
40 | O=C(Nc1c(F)cccc1F)c1nnn(-c2ccc(-c3ccccc3)cc2)c1C1CC1 [Compound 14-54] | 1 to 3
41 | CC(=O)c1ccc(-c2ccc(-n3nnc(C(=O)Nc4ccncc4)c3C3CC3)cc2)cc1C [Compound 7-174] | 1 to 3
42 | COc1cc(-c2ccc(C#N)cc2)ccc1-n1nnc(C(=O)Nc2ccnc(C)c2)c1C1CC1 [Compound 7-228] | 0.1 to 0.5
43 | CS(=O)(=O)c1cccc(-c2ccc(-n3nnc(C(=O)Nc4ccncc4)c3C3CC3)cc2)c1 [Compound 7-71] | 0.1 to 0.5
44 | CC(C)Cn1nc(C(F)(F)F)cc1-c1ccc(-n2nnc(C(=O)Nc3ccncc3)c2C2CC2)cc1 [Compound 7-212] | 1 to 3
45 | O=C(Nc1ccncc1)c1nnn(-c2cc3ccccc3o2)c1C1CC1 [Compound 4-1] | > 3
46 | CCn1cc(CNC(=O)c2nnn(-c3ccc(-c4ccc(C#N)cc4)cc3F)c2C(C)C)cn1 [Compound 17-19] | 0.1 to 0.5
47 | Cc1cc(NC(=O)c2nnn(-c3ccc(-c4ccccc4)cc3)c2C(C)C)ccn1 [Compound 17-31] | 1 to 3
48 | Cc1ncccc1CNC(=O)c1nnn(-c2ccc(-c3ccc(CC#N)cc3)cc2)c1C1CC1 [Compound 16-2] | 0.1 to 0.5
49 | O=C(Nc1ccncc1)c1nnn(-c2ccc(-c3n[nH]cc3F)cc2)c1C1CC1 [Compound 7-130] | 0.5 to 1
50 | CC(=O)c1ccccc1-c1ccc(-n2nnc(C(=O)Nc3ccncc3)c2C2CC2)cc1 [Compound 7-134] | 0.5 to 1
